The record followed here is article PMC8495968, “Towards optimizing peptide-based inhibitors of protein–protein interactions: predictive saturation variation scanning (PreSaVS)” (RSC Chemical Biology, 2021).

Values joined by “and” are separate entries in the source; they are usually repeats but may differ in a detail not shown here. Identical values can stand only once.

One data set deals with T1, hMCL-1 172-327 (Homo sapiens, UniProt Q07820).
T1 construct: 172-327 was expressed; His-SUMO (N, cleaved yes); made in house
The experiment in a line: Fluorescence anisotropy competition assay, FITC-Ahx-BIM75–85 tracer / MCL-1. Format: binding. To be noted: for inhibitory activity in competition FA: competition FA vs FITC-Ahx-BIM75–85/MCL-1, relative to NOXA75–93. How it is done:
(§1) Fluorescence anisotropy assays were performed in 384-well plates (Greiner Bio-one). Each experiment was run in triplicate and the fluorescence anisotropy measured using a Perkin Elmer EnVisionTM 2103 MultiLabel plate reader, with excitation at 480 nm (30 nm bandwidth), polarised dichroic mirror at 505 nm and emission at 535 nm (40 nm bandwidth, S and P polarised). All assays were performed in 20 mM Tris, 100 mM NaCl, 0.1 mM DTT, pH 7.5 unless otherwise stated and data analysed following previously published methods.
(§2) Fluorescence anisotropy data was processed as described previously.[2] Briefly. the data from both the P (perpendicular intensity) and S (parallel intensity) channels, resulting from this measurement and corrected by subtracting the corresponding control wells, were used to calculate the intensity and anisotropy for each well following Equations 1 and 2: […]
(§3) For direct titration the average anisotropy (across three experimental replicates) and the standard deviation of these values were then calculated and fit to a logistic model using OriginPro 9.0 to determine the maximum and minimum anisotropies then the fraction bound calculated (Equation 3) and used to determine Kd (equation 4)
(§4) Lb= (r‒rmin)/λ(rmax‒r)+r‒rmin Equation 3
(§5) y= {(k+ x+[ FL])‒√{k+x+[FL] 2‒4x[FL]}}/2 Equation 4 r = anisotropy, I = total intensity, P = perpendicular intensity, S = parallel intensity, G = instrument factor which was set to 1 for all experiments, Lb = fraction ligand bound, λ = […]
(§6) For competition experiments, the anisotropies were determined as for the direct titration and then plotted against inhibitor concentration and fit (equation 5) to determine the IC50 and error […]
(§7) y = rmax + (rmin-rmax)/(1+(x/xo)p) Equation 5
(§8) Where xo represents the IC50 […]
(§9) Competition binding assays:
(§10) FA competition assays were performed in 384 well plates with the concentration of variant […]
(§11) with fixed protein and tracer concentrations. FITC-labelled peptide was added to each well to […]
(§12) For control wells, the tracer peptide was replaced with an identical volume of assay buffer.
(§13) The total volume in each well was 60 μL. […]
(In general: Fluorescence polarisation rises when a labelled molecule tumbles more slowly, as on binding a larger partner.)

For another data set, the target named is T2, MCL-1 (Homo sapiens, UniProt Q07820).
T2 construct: 172-327 was expressed; His-SUMO (N, cleaved yes); made in house
The data set is described as follows: Isothermal calorimetry (ITC) of peptide binding to MCL-1. To be noted: 50 mM Tris, 150 mM NaCl, pH 7.5, 150 μM peptide; for Kd: 25°C, one-binding site model. How it is done: Peptide variants were prepared as N-terminal acetamides and C-terminal amides (see ESI ^†). […] Lastly, structural effects of these variations were investigated using circular dichroism (CD) spectroscopy (Fig. S4, ESI ^†).
(b) ITC data (50 mM Tris, 150 mM NaCl, pH 7.5, 150 μM peptide). […]
ITC experiments were carried out using a Microcal ITC200i instrument (Malvern) at 25°C in […]
[…] The protein of interest was dialysed against the buffer prior to experiment, and lyophilized peptides were dissolved in the same buffer. Protein was present in the cell and titrated with peptide solutions loaded into the syringe using 20 x 2 uL injections with 120 s spacing between the injections. Heats of peptide dilution were subtracted from each measurement raw data. Data was analysed using Microcal Origin 8 and

The next data set deals with T3, hSUMO-1 18-97 (Homo sapiens, UniProt P63165).
T3 construct: 18-97; His-TEV (N, cleaved yes); made in house
The data set is described as follows: Fluorescence anisotropy competition assay, FITC-peg-SIM tracer / SUMO. To be noted: for inhibitory potency in competition FA: competition FA vs SIM tracer/SUMO, relative to SIM2705–2717; for IC50: competition FA, 50 mM Tris, 150 mM NaCl, 25 nM tracer, 100 nM SUMO, read after 45 min, triplicate. Format: binding. How it is done: hSUMO-1 18-97 was expressed and purified as previously described from a pet19b His-TEV-SUMO-1 (18-97) construct with cleavage of the tag using TEV protease.4 […]
as §1, §2, §3, §4, §5, §6, §7, §8, §9, §10, §11, §12, §13

The next data set relates to α-chymotrypsin. The data set is described as follows: Proteolysis by α-chymotrypsin. Format: in vitro ADME, bovine. To be noted: 45 μM peptide, 0.25 μg/ml α-chymotrypsin, 25 °C, 50 mM Tris-HCl pH 8.0, 150 mM NaCl, 10 mM CaCl2; LC-MS EIC of full-length peptide; triplicate.
From the text: An advantage of PreSaVS lies in the ability to identify tolerated variants – in terms of target binding affinity – with more desirable physicochemical properties (Table S3 for calculated physicochemical properties, ESI ^†). […] This may arise from subtle changes in protease recognition specificity, although given proteases recognise substrates in an extended, β-like conformation as is the case for the SIM2705–2717/SUMO interaction, secondary structure propensity may also play a role.
Figure S7. Proteolysis data for (a) NOXA75-93 (45 μM peptide in the presence of 0.25 μg/ml α-chymotrypsin at 25 °C) and (b) SIM2705-2717 (40 μM peptide in the presence of 0.75 μg/mL Proteinase K at 25 °C). Data points show the mean ± standard deviation over triplicate measurements. Insets show t1/2 values.
as §8
diluted over 16-24 points using 2-fold dilutions. […]
of assay buffer. Plates were read after 45 minutes. […]
The total volume in each well was 60 μL. Plates were read after 45 minutes of incubation at […]
uL injections with 120 s spacing between the injections. […] Data was analysed using Microcal Origin 8 and fitted to a one-binding site model […]
Peptide solubility was assessed using a qualitative test.
= 5690 M-1cm-1), concentrations were determined based on the absorbance at 280 nm. For NOXA variants, concentrations were determined based on absorbance at 205 nm (ε 205 = […]

T1 sequence (Q07820 172-327): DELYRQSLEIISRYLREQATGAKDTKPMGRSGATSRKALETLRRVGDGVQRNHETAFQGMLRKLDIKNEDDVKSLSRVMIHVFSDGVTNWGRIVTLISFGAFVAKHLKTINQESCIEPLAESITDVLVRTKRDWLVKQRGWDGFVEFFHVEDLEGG
T2 sequence (Q07820 172-327): as above
T3 sequence (P63165 18-97): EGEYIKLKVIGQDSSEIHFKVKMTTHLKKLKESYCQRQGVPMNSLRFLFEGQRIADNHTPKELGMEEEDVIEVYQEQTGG

For the compound “Ac-AAQWRRIGDKVNLRQKLLN-NH2 [NOXA75–93L78W]”, on hMCL-1 172-327, the IC50 (commonly the midpoint of a concentration-inhibition curve) came out at 2200 ± 100 nM and the “inhibitory activity in competition FA” value is “tolerated”. On MCL-1, the ΔG is -1.83 kcal/mol; the ΔH is -3.13 ± 0.932 kcal/mol; the “−TΔS” value came to 1.31 kcal/mol; the Kd – broadly, the concentration at which binding is half-saturated – was determined as 2400 ± 800 nM.

For `CC[C@H](C)[C@H](NC(=O)[C@H](CCC(=O)O)NC(=O)[C@H](CC(N)=O)NC(=O)[C@H](CC(=O)O)NC(C)=O)C(=O)N[C@@H](CCC(=O)O)C(=O)N[C@H](C(=O)N[C@H](C(=O)N[C@H](C(=O)N[C@@H](CCC(=O)O)C(=O)N[C@@H](Cc1c[nH]c2ccccc12)C(=O)N[C@@H](CCC(=O)O)C(=O)N[C@@H](CCCCN)C(=O)N[C@@H](CCCCN)C(N)=O)[C@@H](C)CC)[C@@H](C)CC)C(C)C` [SIM2705–2717V2713E], at hSUMO-1 18-97, the “inhibitory potency in competition FA” value was “lost inhibitory potency” and the concentration for half-maximal inhibition (IC50) was above 200000 nM.

With “Ac-AAQLRRIGDKFNLRQKLLN-NH2 [NOXA75–93V85F]”, at hMCL-1 172-327, the IC50 was above 20000 nM and the “inhibitory activity in competition FA” value was “weaker inhibitory activity”. In addition, on MCL-1, the ΔG was -2 kcal/mol, the ΔH was -3.66 ± 0.813 kcal/mol, the “−TΔS” value was 1.65 kcal/mol and the Kd is 800 ± 100 nM.

Consider `CC[C@H](C)[C@H](NC(=O)[C@H](CCC(=O)O)NC(=O)[C@H](CC(N)=O)NC(=O)[C@H](CC(=O)O)NC(C)=O)C(=O)N[C@@H](CCC(=O)O)C(=O)N[C@H](C(=O)N[C@H](C(=O)N[C@H](C(=O)N[C@H](C(=O)N[C@@H](Cc1c[nH]c2ccccc12)C(=O)N[C@@H](CCC(=O)O)C(=O)N[C@@H](CCCCN)C(=O)N[C@@H](CCCCN)C(N)=O)C(C)C)[C@@H](C)CC)[C@@H](C)CC)[C@@H](C)CC` [SIM2705–2717V2710I], for which the IC50 at hSUMO-1 18-97 was 16200 nM and 16100 nM.

“Ac-AAQYRRIGDKVNLRQKLLN-NH2 [NOXA75–93L78Y]”: at hMCL-1 172-327, the concentration for half-maximal inhibition (IC50) was above 100000 nM and the “inhibitory activity in competition FA” value was “poor inhibitor”. Further, the “increased rate of cleavage by α-chymotrypsin relative to NOXA75–93” value with α-chymotrypsin was “≈ 10 fold”.

“Ac-AAQFRRIGDKVNLRQKLLN-NH2 [NOXA75–93L78F]” registered a half-inhibitory concentration (IC50) at hMCL-1 172-327 of 2700 ± 100 nM. At MCL-1, this compound had a Kd of 1700 ± 100 nM. Moreover, the “increased rate of cleavage by α-chymotrypsin relative to NOXA75–93” value in the data set with α-chymotrypsin was “≈ 10 fold”.

`CC[C@H](C)[C@H](NC(=O)[C@H](CCC(=O)O)NC(=O)[C@H](CC(N)=O)NC(=O)[C@H](CC(=O)O)NC(C)=O)C(=O)N[C@@H](CCC(=O)O)C(=O)N[C@H](C(=O)N[C@@H](CCC(=O)O)C(=O)N[C@H](C(=O)N[C@H](C(=O)N[C@@H](Cc1c[nH]c2ccccc12)C(=O)N[C@@H](CCC(=O)O)C(=O)N[C@@H](CCCCN)C(=O)N[C@@H](CCCCN)C(N)=O)C(C)C)[C@@H](C)CC)C(C)C` [SIM2705–2717I2711E]: on hSUMO-1 18-97, the “inhibitory potency in competition FA” value is “lost inhibitory potency” and the concentration for half-maximal inhibition (IC50) was above 200000 nM.

Consider `CC[C@H](C)[C@H](NC(=O)[C@H](CCCNC(=N)N)NC(=O)[C@H](CCCNC(=N)N)NC(=O)[C@H](CC(C)C)NC(=O)[C@H](CCC(N)=O)NC(=O)[C@H](C)NC(=O)[C@H](C)NC(C)=O)C(=O)NCC(=O)N[C@@H](CC(=O)O)C(=O)N[C@@H](CCCCN)C(=O)N[C@H](C(=O)N[C@@H](CC(N)=O)C(=O)N[C@@H](CC(C)C)C(=O)N[C@@H](CCCNC(=N)N)C(=O)N[C@@H](CCC(N)=O)C(=O)N[C@@H](CCCCN)C(=O)N[C@@H](CC(C)C)C(=O)N[C@@H](CC(C)C)C(=O)N[C@@H](CC(N)=O)C(N)=O)C(C)C` [NOXA75–93], for which, at MCL-1, the ΔG is -2.08 kcal/mol and the ΔH is -4.59 ± 0.359 kcal/mol.
